# Source: the OligoGym collection
# Where “and” joins values, the source holds several entries; their conditions need not be identical. Equal values may be shown once. After the bases stand the sugars from the 5' end (letter, count) and the backbone: PS all phosphorothioate, else s phosphorothioate and o phosphodiester by linkage. Methylation of C is not given here. e = 2'-O-(2-methoxyethyl) (MOE); k = constrained ethyl (cEt); d = 2'-deoxy (DNA)
# Target: IRF4
# Conditions: ASO
Sequence,"target mRNA inhibition (MM.1R, 1 µM)","target mRNA inhibition (SK-MEL-28, 4 µM) [%]",also measured
"TGTTACCGATGCTTCA (sugars kkddddddddddkeke, PS)",25% and 42%,,
"ATGTGTATTACTCTTA (sugars k3 d10 k3, PS)",52% and 49%,,
"GACAGTGACTTGCATC (sugars kddddddddddkekek, PS)",8%,,
"GTAATAGTAAATATCC (sugars k3 d10 k3, PS)",,61,
"TCCCAGTAGATCCTGC (sugars k3 d10 k3, PS)",,40,
"AACTTACAGGACTATT (sugars k3 d10 k3, PS)",,13,
"CTGAGACTACACCTAC (sugars k3 d10 k3, PS)",-40%,,
"GAATTAGGTGCTTAAT (sugars k3 d10 k3, PS)",,59,
"AATTACTGCTTGAGGT (sugars k3 d10 k3, PS)",,58,
"TGTTACCGATGCTTCA (sugars k3 d10 k3, PS)",,49,
"AGTGTCTAAAGTCCCA (sugars k3 d10 k3, PS)",42% and 58%,,"target mRNA inhibition (MM.1R, 0.0625 µM): 15%; target mRNA inhibition (MM.1R, 0.25 µM): 34%; target mRNA inhibition (MM.1R, 4 µM): 75%"
"GCAAGTGTCTTCCACA (sugars k3 d10 k3, PS)",,77,
"GAACACACCACTATTC (sugars k3 d10 k3, PS)",-20%,,
"CCCATCTGTCTCAGTT (sugars k3 d10 k3, PS)",,66,
"TCCCGACACGCGCCGC (sugars k3 d10 k3, PS)",-12%,,
"AGTGATGTCAGGTTTT (sugars kkdddddddddekeke, PS)",33%,,
"TATATATGACGACTTA (sugars k3 d10 k3, PS)",,20,
"TATCCATGTTGCATGG (sugars k3 d10 k3, PS)",,61,
"GGATGCCACCATCCCA (sugars k3 d10 k3, PS)",,-5,
"TGCAAAATAGTCACTC (sugars k3 d10 k3, PS)",,48,
"CTGCACTCGCCCTGGA (sugars k3 d10 k3, PS)",,42,
"GTAACAGGCTATCAGG (sugars k3 d10 k3, PS)",,45,
"GGGATTATATACTGGT (sugars kddddddddddkekek, PS)",34%,,
"CGCACGGACGAACGCG (sugars k3 d10 k3, PS)",-17%,,

Sequence,"target mRNA inhibition (MM.1R, 1 µM)","target mRNA inhibition (SK-MEL-28, 4 µM) [%]",also measured
"ACCTCAGTTTGTGAAG (sugars kkdddddddddkekek, PS)",13%,,
"CTATTATAGAGCATCA (sugars k3 d10 k3, PS)",,55,
"GCTCATCCCGTCCAGC (sugars k3 d10 k3, PS)",,15,
"TTGGTTGGCTGGTCTT (sugars kkddddddddddkeke, PS)",27%,,
"TAAAACTGCGCTCTCT (sugars k3 d10 k3, PS)",-14%,,
"TGATAGCTGAGCTGAT (sugars kdddddddddkekeke, PS)",17%,,
"GAGGACTTCGGGAGAT (sugars k3 d10 k3, PS)",,23,
"ATCAGAAATCACGAGG (sugars k3 d10 k3, PS)",6%,71,"target mRNA inhibition (MM.1R, 0.0625 µM): 2%; target mRNA inhibition (MM.1R, 0.074 µM): -9%; target mRNA inhibition (MM.1R, 0.222 µM): -12%; target mRNA inhibition (MM.1R, 0.25 µM): 1%; target mRNA inhibition (MM.1R, 0.666 µM): -4%; target mRNA inhibition (MM.1R, 2 µM): 9%; target mRNA inhibition (MM.1R, 4 µM): 36%"
"GTTTATTTCCTACTCT (sugars k4 d8 k4, PS)",,44,
"CACTATTAAACAGCAC (sugars k3 d10 k3, PS)",,19,
"AAGGTCTGAGAGCCTT (sugars k3 d10 k3, PS)",,17,
"CCACAGTTGAACCCAT (sugars k3 d10 k3, PS)",,36,
"AAAGGAGGTAGTGGCC (sugars k3 d10 k3, PS)",,21,
"TCAGAGCTAGAACATG (sugars k3 d10 k3, PS)",,38,
"GCAGTGATGTCAGGTT (sugars kdddddddddkekeke, PS)",33%,,
"CTTGATAAAGGCTGAA (sugars k2 d9 e3 k2, PS)",10%,,
"AGTGTCTAAAGTCCCA (sugars kkddddddddddkeke, PS)",32% and 39%,,
"GCCCAAGCCTTGAAGA (sugars k3 d10 k3, PS)",,15,
"TAGTTTTATGTTAGCC (sugars k3 d10 k3, PS)",45%,75,"target mRNA inhibition (MM.1R, 0.0625 µM): 4%; target mRNA inhibition (MM.1R, 0.074 µM): -1%; target mRNA inhibition (MM.1R, 0.222 µM): 4%; target mRNA inhibition (MM.1R, 0.25 µM): 18%; target mRNA inhibition (MM.1R, 0.666 µM): 22%; target mRNA inhibition (MM.1R, 2 µM): 39%; target mRNA inhibition (MM.1R, 4 µM): 78%"
"AGGAACAAGTGTATCT (sugars k3 d10 k3, PS)",,46,
"GGGATTATATACTGGT (sugars k2 d9 e3 k2, PS)",35%,,
"TATGCCATGGACAAGT (sugars k3 d10 k3, PS)",,19,
"CTTCATCAGACTAAGT (sugars k3 d10 k3, PS)",,31,
"GTCTACTGCTGTACTT (sugars k3 d10 k3, PS)",,52,

Sequence,"target mRNA inhibition (MM.1R, 1 µM)","target mRNA inhibition (SK-MEL-28, 4 µM) [%]",also measured
"CCAGAGCACACAGACG (sugars k3 d10 k3, PS)",,36,
"AGATAACGAGGTGCCT (sugars k3 d10 k3, PS)",,23,
"GTGTGTGCACTCGCGC (sugars k3 d10 k3, PS)",19%,,
"GGGTAAGCACTGAGGC (sugars k3 d10 k3, PS)",,61,
"TGTGATAGCTGAGCTG (sugars kkddddddddddkeke, PS)",16%,,
"TGTCAAAGAGCTTGCA (sugars k3 d10 k3, PS)",,11,
"GTGCACTCGCGCAAAG (sugars k3 d10 k3, PS)",-5%,,
"GCCAAAGTGACTTAAT (sugars k3 d10 k3, PS)",,70,
"CACATCAATGTTTTAG (sugars k2 d9 e3 k2, PS)",12% and 11%,,
"ATAGTAAATATCCTGT (sugars k3 d10 k3, PS)",,36,
"TTTATGTTAGCCAATT (sugars kdddddddddkekeke, PS)",5% and 14%,,
"TGGCTAGCAGAGGTTC (sugars k3 d10 k3, PS)",,56,"target mRNA inhibition (SK-MEL-28, 0.185 µM): 1%; target mRNA inhibition (SK-MEL-28, 5 µM): 62%; target mRNA inhibition (SK-MEL-28, 15 µM): 85%"
"ATGACGACTTAAGCTA (sugars k3 d10 k3, PS)",,62,
"GGCCTTTACAAAGAAC (sugars k3 d10 k3, PS)",,-19,
"TTTTAGTTCATACCCA (sugars k3 d10 k3, PS)",,52,
"TCAGACTGTGCTGCTC (sugars k3 d10 k3, PS)",,36,
"CGTCATGGGACATTGG (sugars k3 d10 k3, PS)",,56,
"CTTGATAAAGGCTGAA (sugars kkdddddddddekeke, PS)",19%,,
"TCACGAGGTTGCCGAG (sugars k3 d10 k3, PS)",,62,
"AGTTCATGTAAAGTCT (sugars kkddddddddddkeke, PS)",45% and 49%,,
"AAGGGTTACGCTTATT (sugars k3 d10 k3, PS)",,52,
"ATGTGATAGCTGAGCT (sugars kddddddddddkekek, PS)",-3%,,
"AAGTGATAGGTATACT (sugars k3 d10 k3, PS)",,50,
"TACCATGCATAGTGAT (sugars k3 d10 k3, PS)",,44,
